From patent publication US10780074B2, “Compounds and uses thereof” (Sunovion Pharmaceuticals Inc., priority 2017, dated 2020)
Counter-ions that a name gives are not always drawn.

Tested on: behaviors of compound-treated mice
Assay: Neuropharmacological Assay (SmartCube)
Format: in vivo
Conditions: for minimal effective dose: Mus musculus, ip, 0.25 h, dose having 50% or more total activity in SmartCube, i.p., read-out: MED (minimal effective dose); for AD: ADHD (probability that activity matches class) / AG: analgesic (probability that activity matches class) / AX: anxiolytic (probability that activity matches class) / CE: cognitive enhancer (probability that activity matches class) / DP: anti-depressant (probability that activity matches class) / MS: mood stabilizer (probability that activity matches class) / PS: anti-psychotic (probability that activity matches class) / SD: sedative hypnotic (probability that activity matches class) / UN: uncharacterized CNS activity (probability that activity matches class): i.p. 15 min before behavioral test, most efficacious dose(s) of 3 doses
In short: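 Behavioral signatures were captured automatically by video, and each drug class received a probability for the best of three i.p. doses given 15 min pre-test (vehicle: Pharmasolve/PEG/propylene glycol). Potency is given as MED, the lowest mpk dose (typically 0.3–30) reaching 50% or more total activity.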

Structure (SMILES) | minimal effective dose [mg/kg] | AD: ADHD (probability that activity matches class) | AG: analgesic (probability that activity matches class) | AX: anxiolytic (probability that activity matches class) | CE: cognitive enhancer (probability that activity matches class) | DP: anti-depressant (probability that activity matches class) | MS: mood stabilizer (probability that activity matches class) | PS: anti-psychotic (probability that activity matches class) | SD: sedative hypnotic (probability that activity matches class) | UN: uncharacterized CNS activity (probability that activity matches class)
CCNC[C@H]1OCCc2c(-c3ccncc3)cccc21 (single isomer, unassigned) [Compound 67, hydrochloride salt] | ≤ 3 | + (LOQ ≤ + <5%) | + (LOQ ≤ + <5%) | + (LOQ ≤ + <5%) | + (LOQ ≤ + <5%) | ++++ (50% ≤ ++++) | + (LOQ ≤ + <5%) | + (LOQ ≤ + <5%) | + (LOQ ≤ + <5%) | ++ (5% ≤ ++ <25%)
CNC[C@@H]1OCCc2c(-c3cncs3)cccc21 (single isomer, unassigned) [Compound 68, hydrochloride salt] | 3 to 10 | ++ (5% ≤ ++ <25%) | + (LOQ ≤ + <5%) | ++ (5% ≤ ++ <25%) | + (LOQ ≤ + <5%) | ++++ (50% ≤ ++++) | + (LOQ ≤ + <5%) | + (LOQ ≤ + <5%) | + (LOQ ≤ + <5%) | ++ (5% ≤ ++ <25%)
CNC[C@H]1OCCc2c(-c3cncs3)cccc21 (single isomer, unassigned) [Compound 69, hydrochloride salt] | ≤ 3 | + (LOQ ≤ + <5%) | + (LOQ ≤ + <5%) | ++ (5% ≤ ++ <25%) | + (LOQ ≤ + <5%) | ++++ (50% ≤ ++++) | + (LOQ ≤ + <5%) | + (LOQ ≤ + <5%) | ++ (5% ≤ ++ <25%) | + (LOQ ≤ + <5%)
NC[C@@H]1OCCc2c(-c3cncs3)cccc21 (single isomer, unassigned) [Compound 70, hydrochloride salt] | 3 to 10 | ++ (5% ≤ ++ <25%) | + (LOQ ≤ + <5%) | ++ (5% ≤ ++ <25%) | + (LOQ ≤ + <5%) | ++++ (50% ≤ ++++) | + (LOQ ≤ + <5%) | + (LOQ ≤ + <5%) | + (LOQ ≤ + <5%) | +++ (25% ≤ +++ <50%)
NC[C@H]1OCCc2c(-c3cncs3)cccc21 (single isomer, unassigned) [Compound 71, hydrochloride salt] | ≤ 3 | +++ (25% ≤ +++ <50%) | + (LOQ ≤ + <5%) | ++ (5% ≤ ++ <25%) | + (LOQ ≤ + <5%) | ++ (5% ≤ ++ <25%) | + (LOQ ≤ + <5%) | + (LOQ ≤ + <5%) | ++ (5% ≤ ++ <25%) | ++++ (50% ≤ ++++)
CNC[C@@H]1OCCc2c(-c3ccncn3)cccc21 (single isomer, unassigned) [Compound 72, hydrochloride salt] | > 30 | + (LOQ ≤ + <5%) | + (LOQ ≤ + <5%) | + (LOQ ≤ + <5%) | + (LOQ ≤ + <5%) | + (LOQ ≤ + <5%) | + (LOQ ≤ + <5%) | + (LOQ ≤ + <5%) | + (LOQ ≤ + <5%) | + (LOQ ≤ + <5%)
CNC[C@H]1OCCc2c(-c3ccncn3)cccc21 (single isomer, unassigned) [Compound 73, hydrochloride salt] | 3 to 10 | + (LOQ ≤ + <5%) | + (LOQ ≤ + <5%) | ++ (5% ≤ ++ <25%) | + (LOQ ≤ + <5%) | ++++ (50% ≤ ++++) | + (LOQ ≤ + <5%) | + (LOQ ≤ + <5%) | + (LOQ ≤ + <5%) | + (LOQ ≤ + <5%)
NC[C@@H]1OCCc2c(-c3ccncn3)cccc21 (single isomer, unassigned) [Compound 74, hydrochloride salt] | > 30 | + (LOQ ≤ + <5%) | + (LOQ ≤ + <5%) | + (LOQ ≤ + <5%) | + (LOQ ≤ + <5%) | ++ (5% ≤ ++ <25%) | + (LOQ ≤ + <5%) | + (LOQ ≤ + <5%) | + (LOQ ≤ + <5%) | + (LOQ ≤ + <5%)
NC[C@H]1OCCc2c(-c3ccncn3)cccc21 (single isomer, unassigned) [Compound 75, hydrochloride salt] | 3 to 10 | + (LOQ ≤ + <5%) | + (LOQ ≤ + <5%) | ++ (5% ≤ ++ <25%) | + (LOQ ≤ + <5%) | ++++ (50% ≤ ++++) | + (LOQ ≤ + <5%) | + (LOQ ≤ + <5%) | + (LOQ ≤ + <5%) | ++ (5% ≤ ++ <25%)
CNC[C@@H]1OCCc2c(-c3ccnnc3)cccc21 (single isomer, unassigned) [Compound 76, hydrochloride salt] | 3 to 10 | + (LOQ ≤ + <5%) | ++ (5% ≤ ++ <25%) | ++ (5% ≤ ++ <25%) | + (LOQ ≤ + <5%) | + (LOQ ≤ + <5%) | + (LOQ ≤ + <5%) | + (LOQ ≤ + <5%) | + (LOQ ≤ + <5%) | + (LOQ ≤ + <5%)
CNC[C@H]1OCCc2c(-c3ccnnc3)cccc21 (single isomer, unassigned) [Compound 77, hydrochloride salt] | ≤ 3 | + (LOQ ≤ + <5%) | + (LOQ ≤ + <5%) | ++ (5% ≤ ++ <25%) | + (LOQ ≤ + <5%) | ++++ (50% ≤ ++++) | + (LOQ ≤ + <5%) | + (LOQ ≤ + <5%) | + (LOQ ≤ + <5%) | + (LOQ ≤ + <5%)
